Assay results published in US20170333591A9, “ABSORBENT ARTICLE COMPRISING MALODOR REDUCTION COMPOSITIONS” (The Procter & Gamble Company, priority 2014, published 2017).

assay: Log of liquid dish neat product liquid-air partition coefficient; assay type: physicochemical; details: not given

Q: For `O=C1CCCC=CCCCCCCCCCC1` [Material 788], which “Comment Code: Log of liquid dish neat product liquid-air partition coefficient” value (“Comment Code: Log” below) is on record?
A: Its value is “K (Log of liquid dish neat product liquid-air partition coefficient greater than or equal to 7)”.

Q: Which “Comment Code: Log” value does the source give for `C=Cc1ccc(O)cc1` [Material 789] here?
A: Its value is “K (Log of liquid dish neat product liquid-air partition coefficient greater than or equal to 7)”.

Q: With `CCc1ccc(OC)c(O)c1` [Material 797] as the compound, how does the “Comment Code: Log” value read?
A: The value was “K (Log of liquid dish neat product liquid-air partition coefficient greater than or equal to 7)”.

Q: With `CC1C(=O)CC2(C)CCCC(C)(C)C23CC13` (stereo not shown) [Material 804] as the compound, how does the “Comment Code: Log” value read?
A: Its value is “K (Log of liquid dish neat product liquid-air partition coefficient greater than or equal to 7)”.

Q: With `Cc1n[nH]cc1-c1ccccc1` [Material 808] as the compound, how does the “Comment Code: Log” value read?
A: The value was “K (Log of liquid dish neat product liquid-air partition coefficient greater than or equal to 7)”.

Q: Which “Comment Code: Log” value does the source give for `COc1cc(C)cc(O)c1` [Material 811] here?
A: The value was “K (Log of liquid dish neat product liquid-air partition coefficient greater than or equal to 7)”.

Q: Which “Comment Code: Log” value does the source give for `C=C(C=O)C(C)CCC=C(C)C` (stereo not shown) [Material 819] here?
A: The value was “K (Log of liquid dish neat product liquid-air partition coefficient greater than or equal to 7)”.

same assay, conditions: code letters K/L of the Comment Code

Q: With `CC(C)c1ccc2ncccc2c1` [Material 778] as the compound, how does the “Log of liquid dish neat product liquid-air partition coefficient (Comment Code)” value (shortened to “Log … (Comment Code)”) read?
A: The value was “K (Log of liquid dish neat product liquid-air partition coefficient greater than or equal to 7)”.

Q: For `CC1(C)C2CC=C(CCC=O)C1C2` (stereo not shown) [Material 781], which “Log … (Comment Code)” value is on record?
A: Its value is “K (Log of liquid dish neat product liquid-air partition coefficient greater than or equal to 7)”.

Q: Which “Log … (Comment Code)” value does the source give for `CC(=O)CCCC(C)CCCC(C)CCCC(C)C` (stereo not shown) [Material 782] here?
A: The value was “K (Log of liquid dish neat product liquid-air partition coefficient greater than or equal to 7)”.

Q: Which “Log … (Comment Code)” value does the source give for `O=C1CCCC=CCCCCCCCCCC1` [Material 788] here?
A: The value was “K (Log of liquid dish neat product liquid-air partition coefficient greater than or equal to 7)”.

Q: For `CC1=CCC(O)(C(C)C)CC1` (stereo not shown) [Material 791], which “Log … (Comment Code)” value is on record?
A: Its value is “K (Log of liquid dish neat product liquid-air partition coefficient greater than or equal to 7)”.

Q: With `C=CCCC(=O)c1ccccc1` [Material 792] as the compound, how does the “Log … (Comment Code)” value read?
A: The value was “K (Log of liquid dish neat product liquid-air partition coefficient greater than or equal to 7)”.

Q: For `CC1=CCC(O)(C(C)C)CC1` (stereo not shown) [Material 800], which “Log … (Comment Code)” value is on record?
A: The value was “K (Log of liquid dish neat product liquid-air partition coefficient greater than or equal to 7)”.

Q: Which “Log … (Comment Code)” value does the source give for `COc1ccc(CCC(C)=O)cc1` [Material 803] here?
A: The value was “K (Log of liquid dish neat product liquid-air partition coefficient greater than or equal to 7)”.

Q: For `CC1C(=O)CC2(C)CCCC(C)(C)C23CC13` (stereo not shown) [Material 804], which “Log … (Comment Code)” value is on record?
A: Its value is “K (Log of liquid dish neat product liquid-air partition coefficient greater than or equal to 7)”.

Q: Which “Log … (Comment Code)” value does the source give for `CCC=C1OC(=O)c2ccccc21` [Material 805] here?
A: The value was “K (Log of liquid dish neat product liquid-air partition coefficient greater than or equal to 7)”.

Q: For `CCCCCCCCCC=CC=O` [Material 806], which “Log … (Comment Code)” value is on record?
A: The value was “K (Log of liquid dish neat product liquid-air partition coefficient greater than or equal to 7)”.

Q: Which “Log … (Comment Code)” value does the source give for `CC(CC=O)CCc1ccccc1` (stereo not shown) [Material 807] here?
A: Its value is “K (Log of liquid dish neat product liquid-air partition coefficient greater than or equal to 7)”.

Q: Which “Log … (Comment Code)” value does the source give for `CC(C)c1ccc(CCC=O)cc1` [Material 826] here?
A: The value was “K (Log of liquid dish neat product liquid-air partition coefficient greater than or equal to 7)”.

Q: With `CCCCCCCCC=CC#N` [Material 827] as the compound, how does the “Log … (Comment Code)” value read?
A: Its value is “K (Log of liquid dish neat product liquid-air partition coefficient greater than or equal to 7)”.

Q: With `CCCCCCCCC=CC=O` [Material 828] as the compound, how does the “Log … (Comment Code)” value read?
A: The value was “K (Log of liquid dish neat product liquid-air partition coefficient greater than or equal to 7)”.
